From patent US11116778B2, “Prodrugs of ALOX-15 inhibitors and methods of using the same” (EMPIRICO INC., priority 2019, dated 2021)
Values after ≈ are worked out from the molar mass of the structure shown. Like-named read-outs stand apart in the source and are kept apart here.

Experiments:
[1] = Solubility assessment in water; assay type: physicochemical; details: water; 0.4 μg/ml at molecular weight 308; read-out: solubility, concentration
Procedure: Water was added slowly to 4.7 mg of compound 5 until 4.7 ml of water was added at which point the phosphate fully dissolved. The pH of the solution was estimated using litmus paper and estimated to be <3. Without a counterion, the molecular weight of the phosphate is 418 m. Therefore, at 1 mg/ml, the concentration is 2.4 mM.
For comparison, compound 3 is soluble to 0.4 μg/ml (Han et al FASEB J. 2017 31(2):491-504), which at a molecular weight of 308 is 1.3 μM.
Compound 5 was suspended in water (at weight to give a final concentration of 10 mM) and then 2 eq NaHCO3 was added.

[2] = Han et al FASEB J. 2017; cited from earlier work
[3] = Levels of compound 3 and compound 5 in rabbit nasal lavage and serum after nasal administration of compound 5; assay type: in vivo
Procedure: Six (6) female NZW rabbits were employed in this study. Rabbits were obtained from Covance (Denver Pa.). Rabbits were between approximately 10 and 12 months of age at the time of study start. At time point 0, all animals received 50 μL of solution containing rabbit IL4 (RND Systems/Biotechne) and human IL13 (PreproTech) at a concentration of 0.25 mg/mL each in 0.5×PBS containing 12.5 mg/mL BSA per nostril. This was administered intranasally via a venous catheter attached to a micropipette. The animal was positioned in a supine manner and the venous catheter inserted into the nostril. The volume was introduced into the nasal cavity and the same procedure was repeated with the other nostril.
At the 2, 4, and 6 hour time points, animals in Group 1 (n=3) received 0.2 mL of vehicle (0.9% saline) per nostril and the animals in Group 2 (n=3) received 0.2 mL of compound 5 (10 mM) in vehicle per nostril. The dosing of vehicle and compound 5 proceed as follows: The animal was positioned in a supine manner in a restraint bag and a mucosal atomization device (MAD) attached to the pre-filled tuberculin syringe was inserted into the nostril and introduced into the nasal cavity. The same procedure was repeated with the other nostril.
At the 8 hour time point, all the nostrils of all animals were lavaged with 1 mL of 0.9% saline per nostril and the resulting fluid collected. Intranasal lavages were performed as follows: The animals were held sternally in a restraint bag with the head over the edge of the table and the rear of the animal elevated higher than the head. A flexible venous catheter was inserted in the nostril until resistance was felt. The 1 mL of saline was introduced through the catheter into the nasal cavity. The nasal lavage returned from the nostril was collected via a funnel into a conical tube and the approximate volume recorded. This procedure was repeated for the other nostril. The lavage was stored at approximately −70° C. until analysis. Following (<10 minutes) the 8 hour time point lavage, blood was collected from all animals, processed to serum, and frozen at approximately −70° C. until analysis.
Nasal lavage and serum samples were analyzed for the levels of compound 3 and compound 5. Frozen tissue samples were weighed (20-120 mg) and placed into 2 mL CK14 homogenizing tubes (Bertin) and 500 μL of methanol containing 1 mM butylated hydroxy toluene (BHT) and 1 mM tris(2-carboxyethyl)phosphine (TCEP) was added. The tubes were placed in a Precellys 24 tissue homogenizer (Bertin) and run at 6000 rpm six times for 20 seconds with a 10 second pause between cycles. The tubes containing the homogenized tissue were then placed in a microfuge and centrifuged for 5′ at 14,000 rpm to pellet any insoluble material. Compound 3 was quantified using LC-MS/MS (QTrap5500, Applied Biosystems). Q1/Q3 Masses: 306.00/135.00 using a deschloro derivative of compound 3 (lacking chlorine at 4 position of pyrazole ring) as an internal standard. The Q1/Q3 Masses are 272.00/101.00 Da for the internal standard. Compound 3 was extracted using liquid/liquid extraction with methanol as a diluent. […] Compound 5 was quantified using LC-MS/MS (QTrap5500, Applied Biosystems). […] Compound 5 was detected in the lavage samples from Group 2 animals (rabbit 1, rabbit 2, rabbit 3) and ranged in average concentration from 0.016 uM-0.35 uM. […]

Compound: O=C(Nc1ccc(F)cc1Cl)c1n[nH]c(Cl)c1Cl [compound 3, 4,5-dichloro-N-(2-chloro-4-fluorophenyl)-1H-pyrazole-3-carboxamide]
- solubility [1]: 1.3 µM (≈ 0.401 µg/mL)
- solubility [2]: 0.4 µg/mL (≈ 1.3 µM)
- concentration at 8 h ([3]; female, NZW, rabbit, nasal lavage, other: intranasal (mucosal atomization device), rabbits dosed with compound 5, 0.2 mL of 10 mM per nostril at 2, 4, 6 hours, lavage at 8 hours, range over 3 rabbits, read-out: average concentration of compound 3 in nasal lavage (FIG. 8)): 890 to 3100 nM
- level in serum samples ([3]; rabbits, intranasal compound 5 10 mM, blood after the 8 hour lavage): no quantifiable
